Laboratory results as given in ChEMBL document CHEMBL1201862, “PubChem BioAssay data set” (2004).
Activity calls are given as the source filed them.

How the values were obtained:
[1] = cytotoxicity toward NIH3T3 fibroblasts, dose response, counter-screen, cell-based, ATP luminescence, mouse fibroblasts (AID 2010); format: functional;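 also: cells exposed to compound for about 90 hours before reading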
[2] = cytotoxicity in HEK-293T cells, dose response, cytotoxicity control for BCR NF-kB inhibitor project, luminescence, B-cell screen hits (AID 489021); format: functional, cell-based;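 also: HEK-293T cells carrying an NF-kB luciferase reporter; cells exposed to compound for about 14 hours before viability readout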
INS1 = assay: beta cell apoptosis inhibitors, cytokine rescue, dose response, luminescence, retest (AID 449756); format: functional, cell-based; conditions: Rattus norvegicus;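 also: cell death triggered by IL-1 beta plus TNF-alpha plus IFN-gamma mixture; protective hits raise ATP signal compared with cytokine alone wells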
[3] = inhibitors of intracellular T. cruzi replication, confirmation, NIH3T3 host cells, beta-gal luminescence (AID 2044); format: functional, cell-based;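 also: intracellular parasites grown in NIH/3T3 mouse fibroblasts as host cells; luminescent beta-galactosidase reporter signal from transgenic T. cruzi replicating inside host cells; inhibitors lower the luminescence signal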
[4] = cytotoxicity in KRAS-transformed pancreatic duct cells, primary screen, cell-based, fluorescence, HTS (AID 431); format: functional; conditions: Homo sapiens;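 also: cell line used: HPDE-C7K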
[5] = target: T1, Mannose-6-phosphate isomerase (Homo sapiens, UniProt P34949); assay: human PMI inhibitors, high substrate, primary screen, biochemical, fluorescence intensity, high mannose 6-phosphate (AID 1220)
T1 sequence (P34949 whole entry): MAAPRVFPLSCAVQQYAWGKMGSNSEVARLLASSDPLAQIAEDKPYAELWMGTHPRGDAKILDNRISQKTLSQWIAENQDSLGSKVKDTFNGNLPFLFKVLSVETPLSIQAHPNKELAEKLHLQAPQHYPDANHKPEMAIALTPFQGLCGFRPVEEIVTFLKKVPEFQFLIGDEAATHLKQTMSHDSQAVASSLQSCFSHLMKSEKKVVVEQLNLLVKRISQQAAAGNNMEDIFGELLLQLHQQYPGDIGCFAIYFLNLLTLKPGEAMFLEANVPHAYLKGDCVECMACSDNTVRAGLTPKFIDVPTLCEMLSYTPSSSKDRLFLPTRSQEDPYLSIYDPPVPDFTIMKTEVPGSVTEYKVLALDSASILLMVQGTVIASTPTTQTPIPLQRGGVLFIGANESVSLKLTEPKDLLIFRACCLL

[6] = HEp-2 cell cytotoxicity, dose response, cytotoxicity control for RSV inhibitor project, HTS (AID 2410); format: functional; conditions: human respiratory syncytial virus
[7] = cytotoxicity in HPDE-C7 cells, cell-based, fluorescence, HTS (AID 430); format: functional; conditions: Homo sapiens
cells = format: functional
[8] = M. tuberculosis H37Rv growth inhibitors, H37Rv strain (AID 1626); format: functional
[9] = THP-1 cell cytotoxicity, dose response, cytotoxicity control for non-replicating M. tuberculosis project (AID 489025); format: functional
Bcl-2-like protein 10 = target: T2, Bcl-2-like protein 10 (Homo sapiens, UniProt Q9HD36); assay: displacers of TR3 peptide from Bcl-B, primary screen, selectivity assay for Bfl-1 inhibitor project, biochemical, fluorescence polarization, FITC-TR3 peptide (AID 748);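 also: fluorescence polarization from a fluorescein-labelled TR3 peptide binding purified Bcl-B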
T2 sequence (Q9HD36 whole entry): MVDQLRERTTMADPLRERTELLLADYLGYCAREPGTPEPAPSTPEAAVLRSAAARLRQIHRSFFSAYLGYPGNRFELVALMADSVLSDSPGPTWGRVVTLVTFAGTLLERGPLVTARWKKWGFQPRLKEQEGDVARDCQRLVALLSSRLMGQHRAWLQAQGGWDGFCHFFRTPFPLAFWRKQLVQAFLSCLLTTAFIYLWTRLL

H9c2 = assay: cells; format: functional, cell-based; conditions: Rattus norvegicus, H9c2, Myocardium

## N=c1c2c(n(Cc3cccc(Cl)c3)c3c1CCC3)CCCC2
[1]
  EC50: > 60 µM (inconclusive)
[2]
  IC50: > 80 µM (inactive)
INS1
  AC50: 6.82 µM (active)
[3]
  EC50: 0.167 µM (active)

## COc1cc2c(C#N)c(N3CCc4ccccc4C3)nc(N)c2c(N)n1
[4]
  EC50: 8.37 µM (active)
[5]
  IC50: > 50 µM (not active)
[6]
  CC50: 15.2 µM (active)
[7]
  EC50: 7.82 µM (active)

## COc1ccc(NC(=O)c2ccc(COCC(F)(F)C(F)F)cc2)cc1
cells
  IC50: 47.8 µM (active)
[8]
  IC50: > 100 µM (active)
[9]
  CC50: > 40 µM (active)

## COC(=O)c1[nH]c2cccc(OC)c2c1NC(=O)CCN1CCC(C(N)=O)CC1
Bcl-2-like protein 10
  IC50: > 100 µM (inactive)

## CC(C)N1C(=O)S/C(=C/c2ccc3c(c2)n(C)c(=O)n3C)C1=O
H9c2
  IC50: 32.2 µM (inactive)
[2]
  IC50: > 80 µM (inactive)

## C/C(=C\C(=O)c1cccnc1)Nc1ccc(C(=O)O)cc1
[5]
  IC50: > 50 µM (not active)
